Measurements published in ChEMBL document CHEMBL4831479, “Discovery of Novel Thiophene-arylamide Derivatives as DprE1 Inhibitors with Potent Antimycobacterial Activities” (J Med Chem, 2021).
≈ marks a conversion by molar mass, not a printed value.

Legend:
[1] = system: Mycobacterium tuberculosis; experiment: Non-covalent inhibition of DprE1 in PBTZ169-resistant Mycobacterium tuberculosis measured after 7 days by microplate Alamar blue assay; conditions: time 7.0 day
[2] = system: Mycobacterium tuberculosis; experiment: Non-covalent inhibition of DprE1 in bedaquiline-resistant Mycobacterium tuberculosis measured after 7 days by microplate Alamar blue assay; conditions: time 7.0 day

## CCOC(=O)NC(=O)c1ccsc1NC(=O)c1ccc(C(=O)N2CCCCC2)c(F)c1
[1]
  MIC: 0.062 µg/mL (≈ 0.139 µM)
[2]
  MIC: 0.054 µg/mL (≈ 0.121 µM)

## CCOC(=O)NC(=O)c1ccsc1NC(=O)c1ccc(C(=O)N2CCCCC2)cc1
[1]
  MIC: 0.14 µg/mL (≈ 0.326 µM)

## COC(=O)NC(=O)c1ccsc1NC(=O)c1ccc(C(=O)N2CCCCC2)cc1
[1]
  MIC: 0.48 µg/mL (≈ 1.16 µM)
